Reference: ChEMBL document CHEMBL1151277, “Sesquiterpene chromones from Ferula fukanensis and their nitric oxide production inhibitory effects” (J Nat Prod, 2005)
≈ marks a conversion by molar mass, not a printed value.

What follows are compounds tested on RAW264.7 (assay: Inhibition of LPS and IFN-gamma-induced nitric oxide production in mouse RAW264.7 cells after 16 hrs by Griess assay). Conditions: RAW264.7, 16 h.
Format: functional, cell-based
With `CC(C)=CCC/C(C)=C/CC[C@]1(C)Oc2oc3cc(O)ccc3c(=O)c2[C@H]1C` the IC50 was 4.1 µg/mL (≈ 10.7 µM). With `CC(C)=CC(=O)C/C(C)=C/CC[C@]1(C)Oc2oc3cc(O)ccc3c(=O)c2[C@H]1C` (relative stereo) [FUKANEFUROCHROMONE A] the IC50 was 9.8 µg/mL (≈ 24.7 µM). With `CC(C)=CC(=O)C/C(C)=C/CC[C@@]1(C)Oc2oc3cc(O)ccc3c(=O)c2[C@H]1C` (relative stereo) [FUKANEFUROCHROMONE B] the IC50 was 8.9 µg/mL (≈ 22.4 µM). For `CC(C)=CC(=O)/C=C(\C)CCC[C@]1(C)Oc2oc3cc(O)ccc3c(=O)c2[C@H]1C` (relative stereo) [FUKANEFUROCHROMONE C], the IC50 was 11.5 µg/mL (≈ 29 µM). Work on `CC(C)=CC(=O)/C=C(/C)CCC[C@]1(C)Oc2oc3cc(O)ccc3c(=O)c2[C@H]1C` (relative stereo) [FUKANEFUROCHROMONE D] yielded an IC50 of 9.5 µg/mL (≈ 24 µM).

The compounds below were run on RAW264.7 (assay: Inhibition of LPS and IFN-gamma-induced iNOS mRNA expression in mouse RAW264.7 cells for 8 hrs by RT-PCR analysis). Conditions: not given.
Format: functional, cell-based
With `CC(C)=CC(=O)/C=C(/C)CCC[C@]1(C)Oc2oc3cc(O)ccc3c(=O)c2[C@H]1C` (relative stereo) [FUKANEFUROCHROMONE D] the Activity was “Dose-dependent effect”.
